Patent publication US20170298090A1, “Modulators of ROR-gamma Receptors, Composition and Use Thereof” (KULING THERAPEUTICS, priority 2016, published 2017)
Entries after “also recorded” stand apart in the source; their conditions may differ. Read-outs that look alike come from different tables or passages of the source.

Tests used:
[1] = tested on: experimental autoimmune encephalomyelitis (EAE); assay: MOG-induced EAE, therapeutic disease model; type: in vivo, mice; details: ~250 mg/kg gavage twice daily from Day 9
Description: (§1) MOG-induced Experimental Autoimmune Encephalomyelitis (EAE)—EAE induction were performed by immunizing mice twice with MOG35-55 peptide (amino acids 35-55; MEVGWYRSPFSROVHLYRNGK) emulsified in CFA followed by pertussis toxin injection with slight modifications, and analyzed as previously described. […] The Journal of biological chemistry 286: 22707-22710 (2011); Wang, X., et al. Transcription of Il17 and Il17f is controlled by conserved noncoding sequence 2. Immunity 36: 23-31 (2012). Briefly, the disease scores were assigned on a scale of 0-5 as follows: 0, none; 1, limp tail or waddling gait with tail tonicity; 2, wobbly gait; 3, hindlimb paralysis; 4, hindlimb and forelimb paralysis; 5, death.
To test the therapeutic potential of KL001, EAE was first induced by MOG immunization and PTX injection as described.

[2] = tested on: experimental autoimmune encephalomyelitis (EAE); assay: MOG-induced EAE, preventative disease model; type: in vivo, mice; details: for IL-17 expression of T cells infiltrated into the central nerve system: 100 mg/kg i.p. every other day; for effect on EAE disease (in words): 100 mg/kg i.p. every other day after first MOG immunization
Description: as §1
The Journal of biological chemistry 286: 22707-22710 (2011).

[3] = tested on: imiquimod (IMQ)-induced psoriasis; assay: IMQ-induced psoriasis, preventative disease model; type: in vivo, C57BL/6 mice; details: ~250 mg/kg gavage twice daily
Description: IMQ-induced psoriasis model—The mouse psoriasis model was induced according to previous described with minor modifications. van der Fits L, et al. (2009) Imiquimod-induced psoriasis-like skin inflammation in mice is mediated via the IL-23/IL-17 axis. J Immunol 182(9):5836-5845. Briefly, 7-9 weeks old female C57BL/6 mice were used to induce psoriasis. On day 0, the hair was removed from the dorsal skin of the mice after anaesthetizing with pentobarbital (˜0.2 ml/20 g body weight by i.p.). On day 1, psoriasis was induced […] by applying 62.5 mg 5% imiquimod cream to the dorsal skin after anaesthesia on a daily base. In the preventative disease model, KL001 (dissolved in 0.5% methylcellulose (MC)) or 0.5% MC (control group) was orally administrated into C57BL/6 mice by gavage at a dosage of ˜250 mg/kg body weight twice daily starting 2 days before induction of psoriasis (Day −2). The mice were then sacrificed on Day 5, and the skin tissues were then removed for H&E staining and mRNA expression analysis. […] The expression of Il17, Il17f and Rorc (encoding RORγt) were then quantified by realtime PCR and normalized to Actb gene by using the following primers: Actb, F: […]/R (SEQ ID NO.1): […] […]

[4] = tested on: Th17 cells; assay: Th17 differentiation of mouse naive CD4+ T cells, IL-17/IL-17F intracellular staining; type: cell-based; details: for inhibition of TH17 differentiation (in words): 2-10 μM, in vitro culture; for IL-17 and IL-17F expression in Th17 cells (in words): FIG. 1
Description: T-cell Isolation and Differentiation—Mouse T cell differentiation was performed and analyzed by intracellular staining as described. […] The Journal of biological chemistry 286: 22707-22710 (2011); Wang, X., et al. Transcription of Il17 and Il17f is controlled by conserved noncoding sequence 2. Immunity 36: 23-31 (2012). Briefly, mouse naïve CD4^+ T cells (CD4^+CD25^−CD62L^hi-CD44^lo) were isolated from spleens and lymph nodes by FACS sorting. Th17 differentiation was performed with 15 ng ml^− IL-6 and 2.5 ng ml^− TGF-β in the presence of 1 μg ml^− anti-CD3 (plate bound) and 1 μg ml^− anti-CD28 (plate bound) for 4 days. When indicated, different concentrations of UA, KL001, other UA analogs or small molecules (dissolved in DMSO) were added at the beginning of Th17 differentiation. The mature Th17 cells were restimulated with 50 ng ml^− PMA (phorbol 12-myristate 13-acetate) and 500 ng ml^− inomycin in the presence of BD GolgiStop™ for 6 hrs, stained intracellularly for IL-17 and IL-17F, and then analyzed by flow cytometry.
UA and its analogs KL001 to KL005, 201702-1 to 201702-4, and 201509-1 to 201509-3 inhibit TH17 differentiation. Mouse naïve CD4+ T cells were cultured under Th17 polarizing condition in the presence of above chemicals (2-10 μM) or DMSO control (Ctrl) for 4 days and then restimulated for IL-17 and IL-17F staining (FIG. 1). […] The Journal of biological chemistry 286: 22707-22710 (2011), 2 μM UA inhibited ˜80% IL-17 expression and ˜50% IL-17F expression, both of which were reported to contribute TH17-mediated autoimmune diseases Yang, X. O., Chang, S. H., Park, H. et al. Regulation of inflammatory responses by IL-17F. The Journal of experimental medicine, 205: 1063-1075 (2008). […] (FIG. 1), whereas other UA analogs inhibited TH17 differentiation at a less degree (FIG. 1 and FIG. 6).

[5] = target: STAT3 (Homo sapiens, UniProt P40763); details: previous studies; cited from earlier work
STAT3, sequence (P40763 whole entry, species assumed): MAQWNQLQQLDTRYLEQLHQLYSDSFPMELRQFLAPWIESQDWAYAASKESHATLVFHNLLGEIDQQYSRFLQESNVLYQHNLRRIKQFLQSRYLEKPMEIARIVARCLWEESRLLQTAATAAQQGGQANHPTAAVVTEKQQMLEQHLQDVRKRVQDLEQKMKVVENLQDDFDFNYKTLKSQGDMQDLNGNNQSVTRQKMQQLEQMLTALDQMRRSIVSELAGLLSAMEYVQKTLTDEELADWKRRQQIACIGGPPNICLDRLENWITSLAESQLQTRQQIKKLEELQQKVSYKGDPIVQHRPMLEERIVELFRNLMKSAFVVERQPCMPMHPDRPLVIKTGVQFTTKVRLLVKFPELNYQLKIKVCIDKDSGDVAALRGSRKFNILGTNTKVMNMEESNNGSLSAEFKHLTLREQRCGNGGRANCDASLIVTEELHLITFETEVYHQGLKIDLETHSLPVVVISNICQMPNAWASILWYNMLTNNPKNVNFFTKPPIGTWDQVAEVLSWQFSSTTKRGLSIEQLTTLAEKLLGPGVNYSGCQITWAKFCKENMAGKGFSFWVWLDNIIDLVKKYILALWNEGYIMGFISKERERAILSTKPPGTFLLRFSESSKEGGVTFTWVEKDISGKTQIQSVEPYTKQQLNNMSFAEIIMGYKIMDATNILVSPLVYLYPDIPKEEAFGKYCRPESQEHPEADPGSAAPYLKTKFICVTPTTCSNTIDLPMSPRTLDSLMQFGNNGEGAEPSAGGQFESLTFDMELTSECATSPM

[6] = tested on: Th17 cells; details: previous studies (Xu et al. 2011); read-out: IC50 in inhibiting Th17 differentiation; cited from earlier work
[7] = tested on: rodents; details: cited from earlier work
[8] = 2 μM, Th17 polarizing condition, 4 days

| Compound | effect on EAE disease (in words) [1] | reduction of average disease scores vs control group [1] [%] | IL-17 expression of T cells infiltrated into the central nerve system [2] | effect on EAE disease (in words) [2] | psoriatic symptoms, redness and roughness of the skin (in words) [3] | expression of IL-17 in skin samples ([3]; mRNA) | inhibition of TH17 differentiation (in words) ([4]; 4 days) | IL-17 and IL-17F expression in Th17 cells (in words) [4] | IC50 ([4]; Mus musculus, CD4+ T, readout of IL-17 staining, titration, read-out: IC50 in inhibiting Th17 differentiation) [nM] | concentration at which inhibitory activity on STAT3 was observed [5] | IC50 [6] [nM] | acute toxicity LD50 ([7]; intraperitoneal injection (Lee et al. 2010)) [mg/kg] | acute toxicity LD50 ([7]; oral administration (Lee et al. 2010)) [mg/kg] | inhibition of IL-17F expression [4, 8] [%] | inhibition of IL-17 expression [4, 8] [%] |
| --- | --- | --- | --- | --- | --- | --- | --- | --- | --- | --- | --- | --- | --- | --- | --- |
| Cc1oc(=O)oc1COC(=O)[C@]12CC[C@@H](C)[C@H](C)[C@H]1C1=CC[C@@H]3[C@@]4(C)CC[C@H](O)C(C)(C)[C@@H]4CC[C@@]3(C)[C@]1(C)CC2 [KL001, (5-methyl-2-oxo-1,3-dioxol-4-yl)methyl (1S,2R,4aS,6aS,6bR,8aR,10S,12aR,12bR,14bS)-10-hydroxy-1,2,6a,6b,9,9,12a-heptamethyl-1,3,4,5,6,6a,6b,7,8,8a,9,10,11,12,12a,12b,13,14b-octadecahydropicene-4a(2H)-carboxylate] | significantly reduced the disease severity; also recorded: ameliorated | 50 | significantly reduced | greater degree than UA; also recorded: ameliorated | visually and greatly reduced; also recorded: ameliorated psoriatic symptoms | notably reduced | comparable level to UA; also recorded: comparable efficacy with UA | inhibited | ~490 | – | – | – | – | – | – |
| C[C@H]1[C@H](C)CC[C@]2(C(=O)O)CC[C@]3(C)C(=CC[C@@H]4[C@@]5(C)CC[C@H](O)C(C)(C)[C@@H]5CC[C@]43C)[C@H]12 [UA, ursolic acid, reference compound] | did not affect; also recorded: but not UA, ameliorated | – | significantly reduced | ameliorated | – | – | inhibit | inhibited | – | higher than 25 μM | 680 | > 637 | 8330 | ~50 | ~80 |
